Data as given in patent US20100092443A1, “NOVEL COMBINATIONS OF NITROGENATED HETEROCYCLIC ANTIBACTERIAL COMPOUNDS WITH OTHER ANTIBACTERIAL COMPOUNDS AND THE USE OF SAME AS DRUGS” (priority 2008, published 2010).
In brackets after ≈: the same amount, converted by molar mass. Where two headings read alike, the source gives them in different places.

Tests used:
Type in all cases: cell-based
K. oxytoca = assay: MIC, dilutions in liquid medium, alone and combined with NXL105; conditions: Klebsiella oxytoca, read-out: MIC
E. aerogenes = assay: as above; conditions: Klebsiella aerogenes, 24 h; E. aerogenes EAR2; Case-R + FEP-R; read-out: MIC
E. coli = assay: microbe, parasite or virus in culture; conditions: Escherichia coli
Protocol: (§1) In vitro activity, method of dilutions in liquid medium:
(§2) A series of test 96-well microtiter plates are prepared in which the same quantity of sterile nutritive medium is distributed. […] After 24 h of incubation in a 37° C. oven, growth inhibition is evaluated by transillumination, which makes it possible to determine the minimum inhibitory concentrations (MICS) expressed in μg/ml.

C. freundii = assay: MIC, dilutions in liquid medium, alone and combined with NXL105; conditions: Citrobacter freundii, read-out: MIC
E. cloacae = assay: as above; conditions: Enterobacter cloacae, read-out: MIC
Protocol: as §1, §2

K. pneumoniae = assay: as above; conditions: Klebsiella pneumoniae, read-out: MIC
Protocol: as §1, §2

Pseudomonas aeruginosa = assay: as above; conditions: Pseudomonas aeruginosa
Protocol: as §1
A series of test 96-well microtiter plates are prepared in which the same quantity of sterile nutritive medium is distributed. Increasing quantities of the compound to be studied, namely the antibacterial compound alone and the inventive combination with the compound of formula (I) of example 1, are distributed in each plate in the respective proportions 2:1 and 4:1, and then each plate is inoculated with a bacterial strain of Pseudomonas aeruginosa. After 24 h of incubation in a 37° C. oven, growth inhibition is evaluated by transillumination, which makes it possible to determine the minimum inhibitory concentrations (MICS) expressed in μg/ml.

Work on CC(C)(O/N=C(\C(=O)N[C@@H]1C(=O)N2C(C(=O)[O-])=C(C[n+]3ccccc3)CS[C@H]12)c1csc(N)n1)C(=O)O [Ceftazidime] yielded an MIC (K. oxytoca; K. oxytoca 1431, TEM-129) greater than 32 µg/mL, an MIC (K. oxytoca; K. oxytoca 16944, OXY-2, TEM-1) greater than 32 µg/mL and an MIC (E. aerogenes) greater than 32 µg/mL. For the same compound, the MIC (E. coli; 24 h, E. coli 2138, KPC-2 + TEM-1) was greater than 32 µg/mL, the MIC (E. coli; 24 h, E. coli (no alias), CTX-M-15 + TEM-1 + OXA-1) was greater than 32 µg/mL and the MIC (E. coli; 24 h, E. coli IND, VEB-1 + CMY-2) was greater than 32 µg/mL. For the same compound, the MIC (E. coli; 24 h, E. coli TN06, CTX-M-2 + TEM-1) was 16 µg/mL, the MIC (E. coli; 24 h, E. coli TN13, CTX-M-14 + CMY-2 + TEM-1) was greater than 32 µg/mL and the MIC (E. coli; 24 h, E. coli Tunisie clone E4, CTX-M-16 + TEM-1) was greater than 32 µg/mL. The MIC (E. coli; E. coli (no alias), Cephalosporinase, read-out: MIC) was greater than 32 µg/mL, the MIC (E. coli; E. coli (no alias), SHV-4) was greater than 32 µg/mL and the MIC (E. coli; E. coli (no alias), TEM-3) was 32 µg/mL (≈ 58.5 µM). For the same compound, the MIC (C. freundii; 24 h, C. freundii (no alias), AmpC + TEM-1) was greater than 32 µg/mL, the MIC (C. freundii; C. freundii (no alias, table row r121), AmpC) was greater than 32 µg/mL and the MIC (C. freundii; C. freundii (no alias, table row r122), AmpC) was greater than 32 µg/mL. It also gave an MIC (C. freundii; C. freundii (no alias, table row r123), AmpC) greater than 32 µg/mL, an MIC (C. freundii; C. freundii (no alias, table row r125), AmpC) of 16 µg/mL and an MIC (E. cloacae; 24 h, E. cloacae 7506, KPC-2 + TEM-1 + KLUC-2) greater than 32 µg/mL. For the same compound, the MIC (E. cloacae; E. cloacae (no alias), AmpC) was greater than 32 µg/mL, the MIC (E. cloacae; E. cloacae, AmpC) was 32 µg/mL and the MIC (K. pneumoniae; 24 h, K. pneumoniae 60, SHV-2 + TEM-2 + PER) was greater than 32 µg/mL. For the same compound, the MIC (K. pneumoniae; 24 h, K. pneumoniae 157, SHV-5 + TEM-26) was greater than 32 µg/mL, the MIC (K. pneumoniae; 24 h, K. pneumoniae 181, SHV-5 + TEM-10) was greater than 32 µg/mL and the MIC (K. pneumoniae; 24 h, K. pneumoniae 236, SHV-5 + TEM-10) was greater than 32 µg/mL. The MIC (K. pneumoniae; 24 h, K. pneumoniae 238, SHV-2 + TEM-12 + CTX-M-2) was greater than 32 µg/mL, the MIC (K. pneumoniae; 24 h, K. pneumoniae 243, SHV-5 + TEM-63) was greater than 32 µg/mL and the MIC (K. pneumoniae; 24 h, K. pneumoniae 253, SHV-2 + TEM-12 + CTX-M-2) was greater than 32 µg/mL. For the same compound, the MIC (K. pneumoniae; 24 h, K. pneumoniae 427, SHV-1 + TEM-1B + CTX-M-3) was greater than 32 µg/mL, the MIC (K. pneumoniae; 24 h, K. pneumoniae 441, SHV-1 + TEM-2 + PER) was greater than 32 µg/mL and the MIC (K. pneumoniae; 24 h, K. pneumoniae 444, SHV-5 + TEM-2 + PER) was greater than 32 µg/mL. The MIC (K. pneumoniae; 24 h, K. pneumoniae 449, SHV-1 + TEM-2 + PER) was greater than 32 µg/mL, the MIC (K. pneumoniae; 24 h, K. pneumoniae 465, TEM-1B + CTX-M-2) was greater than 32 µg/mL and the MIC (K. pneumoniae; 24 h, K. pneumoniae 1734, FOX-3 + TEM-1) was greater than 32 µg/mL. It also gave an MIC (K. pneumoniae; 24 h, K. pneumoniae 9701, CMY-4 + TEM-1) greater than 32 µg/mL, an MIC (K. pneumoniae; 24 h, K. pneumoniae KOL, MOX-2 + SHV-5 + TEM-1) greater than 32 µg/mL and an MIC (K. pneumoniae; 24 h, K. pneumoniae Patient 1BHR, VIM-4 + CTX-M-15 = CMY-4 + TEM-1) greater than 32 µg/mL. For the same compound, the MIC (K. pneumoniae; 24 h, K. pneumoniae Patient F, VIM-1 + SHV-5) was greater than 32 µg/mL, the MIC (K. pneumoniae; 24 h, K. pneumoniae SLK54, ACC-1 + TEM-1) was greater than 32 µg/mL and the MIC (K. pneumoniae; 24 h, K. pneumoniae TN58467, DHA-1 + SHV-2a + TEM-1) was greater than 32 µg/mL. It also gave an MIC (K. pneumoniae; 24 h, K. pneumoniae Tunisie clone K1, CTX-M-16 + OXA-1) greater than 32 µg/mL, an MIC (K. pneumoniae; 24 h, K. pneumoniae Tunisie clone K4, CTX-M-15 + TEM-1 + OXA-1) greater than 32 µg/mL and an MIC (K. pneumoniae; ATCC700603, K. pneumoniae ATCC 700603, SHV-18) greater than 32 µg/mL. It also gave an MIC (K. pneumoniae; K. pneumoniae 26, SHV-5) greater than 32 µg/mL, an MIC (K. pneumoniae; K. pneumoniae CL5761, KPC-3) greater than 32 µg/mL and an MIC (K. pneumoniae; K. pneumoniae CL5762, KPC-3) greater than 32 µg/mL. The MIC (K. pneumoniae; K. pneumoniae CL5763, KPC-3) was greater than 32 µg/mL, the MIC (K. pneumoniae; K. pneumoniae KP04, CTX-M-14) was 32 µg/mL and the MIC (K. pneumoniae; K. pneumoniae VA8, KPC-3) was greater than 32 µg/mL. The MIC (K. pneumoniae; K. pneumoniae VAKP, KPC-2) was greater than 32 µg/mL, the MIC (K. pneumoniae; K. pneumoniae YC, KPC-2) was greater than 32 µg/mL and the MIC (Pseudomonas aeruginosa; ATCC27853, P. aeruginosa ATCC 27853) was 0.5 µg/mL. It also gave an MIC (Pseudomonas aeruginosa; P. aeruginosa 391HG2) greater than 32 µg/mL, an MIC (Pseudomonas aeruginosa; P. aeruginosa 391HG21) greater than 32 µg/mL and an MIC (Pseudomonas aeruginosa; P. aeruginosa 391HG38) greater than 32 µg/mL. It also gave an MIC (Pseudomonas aeruginosa; P. aeruginosa 391HG39) of 1 µg/mL, an MIC (Pseudomonas aeruginosa; P. aeruginosa 391HG58) greater than 32 µg/mL and an MIC (Pseudomonas aeruginosa; P. aeruginosa 391HG118) of 4 µg/mL. It also gave an MIC (Pseudomonas aeruginosa; P. aeruginosa 391HG123) of 32 µg/mL, an MIC (Pseudomonas aeruginosa; P. aeruginosa 391HG158) greater than 32 µg/mL and an MIC (Pseudomonas aeruginosa; P. aeruginosa 391HG271) greater than 32 µg/mL. The MIC (Pseudomonas aeruginosa; P. aeruginosa 391HG329) was greater than 32 µg/mL, the MIC (Pseudomonas aeruginosa; P. aeruginosa 391K1455) was 32 µg/mL and the MIC (Pseudomonas aeruginosa; P. aeruginosa 391K1523) was 16 µg/mL. For the same compound, the MIC (Pseudomonas aeruginosa; P. aeruginosa 391K1525) was 32 µg/mL, the MIC (Pseudomonas aeruginosa; P. aeruginosa 391K1536) was 32 µg/mL and the MIC (Pseudomonas aeruginosa; P. aeruginosa 391K2376) was 32 µg/mL. For the same compound, the MIC (Pseudomonas aeruginosa; P. aeruginosa 391K2379) was 32 µg/mL, the MIC (Pseudomonas aeruginosa; P. aeruginosa 391K2415) was 32 µg/mL and the MIC (Pseudomonas aeruginosa; P. aeruginosa 391KB9) was greater than 32 µg/mL. For the same compound, the MIC (Pseudomonas aeruginosa; P. aeruginosa 391KB14) was 32 µg/mL, the MIC (Pseudomonas aeruginosa; P. aeruginosa 391KB21) was greater than 32 µg/mL and the MIC (Pseudomonas aeruginosa; P. aeruginosa 391KB33) was 32 µg/mL. For the same compound, the MIC (Pseudomonas aeruginosa; P. aeruginosa 391KB38) was greater than 32 µg/mL, the MIC (Pseudomonas aeruginosa; P. aeruginosa 391KB62) was greater than 32 µg/mL and the MIC (Pseudomonas aeruginosa; P. aeruginosa 391KB68) was greater than 32 µg/mL. For the same compound, the MIC (Pseudomonas aeruginosa; P. aeruginosa 391KB90) was greater than 32 µg/mL, the MIC (Pseudomonas aeruginosa; P. aeruginosa 391KB91) was greater than 32 µg/mL and the MIC (Pseudomonas aeruginosa; P. aeruginosa 391KB99) was greater than 32 µg/mL. For the same compound, the MIC (Pseudomonas aeruginosa; P. aeruginosa 391KB103) was 32 µg/mL, the MIC (Pseudomonas aeruginosa; P. aeruginosa 391KB105) was greater than 32 µg/mL and the MIC (Pseudomonas aeruginosa; P. aeruginosa 391KB106) was 32 µg/mL. For the same compound, the MIC (Pseudomonas aeruginosa; P. aeruginosa 391KB107) was greater than 32 µg/mL, the MIC (Pseudomonas aeruginosa; P. aeruginosa 391KB114) was greater than 32 µg/mL and the MIC (Pseudomonas aeruginosa; P. aeruginosa 391KB127) was greater than 32 µg/mL. It also gave an MIC (Pseudomonas aeruginosa; P. aeruginosa 391KB135) greater than 32 µg/mL, an MIC (Pseudomonas aeruginosa; P. aeruginosa 391KB136) greater than 32 µg/mL and an MIC (Pseudomonas aeruginosa; P. aeruginosa 391KB137) greater than 32 µg/mL. For the same compound, the MIC (Pseudomonas aeruginosa; P. aeruginosa 391KB138) was greater than 32 µg/mL, the MIC (Pseudomonas aeruginosa; P. aeruginosa 391KB139) was greater than 32 µg/mL and the MIC (Pseudomonas aeruginosa; P. aeruginosa 391KB140) was 16 µg/mL. For the same compound, the MIC (Pseudomonas aeruginosa; P. aeruginosa 391KB141) was greater than 32 µg/mL, the MIC (Pseudomonas aeruginosa; P. aeruginosa 391KB142) was greater than 32 µg/mL and the MIC (Pseudomonas aeruginosa; P. aeruginosa 391KB143) was greater than 32 µg/mL. The MIC (Pseudomonas aeruginosa; P. aeruginosa 391KB144) was greater than 32 µg/mL, the MIC (Pseudomonas aeruginosa; P. aeruginosa 391QBR2) was greater than 32 µg/mL and the MIC (Pseudomonas aeruginosa; P. aeruginosa 391QBR3) was greater than 32 µg/mL. The MIC (Pseudomonas aeruginosa; P. aeruginosa 391QBR4) was greater than 32 µg/mL, the MIC (Pseudomonas aeruginosa; P. aeruginosa 391QBR5) was greater than 32 µg/mL and the MIC (Pseudomonas aeruginosa; P. aeruginosa 391QBR7) was greater than 32 µg/mL. The MIC (Pseudomonas aeruginosa; P. aeruginosa 391QBR8) was greater than 32 µg/mL, the MIC (Pseudomonas aeruginosa; P. aeruginosa 391QBR9) was greater than 32 µg/mL and the MIC (Pseudomonas aeruginosa; P. aeruginosa 391QBR10) was greater than 32 µg/mL. For the same compound, the MIC (Pseudomonas aeruginosa; P. aeruginosa C3719) was greater than 32 µg/mL.
